Drawing on paper PMC6792352, “Limited Chemical Structural Diversity Found to Modulate Thyroid Hormone Receptor in the Tox21 Chemical Library” (Environmental Health Perspectives, 2019), this text covers CC50 for 30 compounds.

Structures can show the parent of a compound that is named as a salt.

The CC50 is the concentration giving 50% cytotoxicity.

The nature of this series: in vitro. As to conditions: rat, gh3-tre-luc cells.

`C[C@]12C[C@H]3S[C@H]3C[C@@H]1CC[C@@H]1[C@@H]2CC[C@]2(C)[C@@H](O)CC[C@@H]12` [Epitiostanol] returned a CC50 at 24 h (AC50 (uM) modified / 1000, Tox21_110001=Tox21_110520, viability, 1 nM T3 present, 24 h) of more than 20 µM. Turning to `OC(c1ccc(Cl)cc1)(c1ccc(Cl)cc1)c1cccnc1` [Parinol], under “AC50 (uM) modified / 1000”, the CC50 at 24 h was 64.3 µM. This lies in the double-digit micromolar range. `COCC(=O)N(c1c(C)cccc1C)N1CCOC1=O` [Oxadixyl]: under “AC50 (uM) modified / 1000, Tox21_110001=Tox21_301853, viability, 1 nM T3 present, 24 h”, the CC50 at 24 h is more than 90 µM. The compound `O=NN1CCN(N=O)CC1` [Dinitrosopiperazine] registered a CC50 at 24 h (AC50 (uM) modified / 1000) of more than 90 µM.

The compound `CCCOc1sc(C(=O)N2CCC(c3cc(CN)ccc3F)CC2)c(C)c1Br` [AVE8923] returned a CC50 at 24 h (AC50 (uM) modified / 1000) of 3.52 µM. The same measure, in the same setting: the result for `CCCCn1cc[n+](C)c1C` [1-Butyl-2,3-dimethylimidazolium chloride] reads more than 90 µM; that for `Nc1nc2ccccc2[nH]1` [2-Aminobenzimidazole], more than 90 µM; that for `O=C=Nc1cccc(C(F)(F)F)c1` [3-(Trifluoromethyl)phenyl isocyanate], 49 µM. Still for that read-out and setting: as for `O=C(NC(=O)c1c(F)cccc1F)Nc1ccc(Cl)c(Oc2ncc(C(F)(F)F)cc2Cl)c1` [Fluazuron], the figure is more than 50 µM. Turning to `CCCCC(CC)COCCCN` (stereo not drawn) [3-((2-Ethylhexyl)oxy)propylamine], for the setting “AC50 (uM) modified / 1000”, the CC50 at 24 h is more than 90 µM. For `CC(=O)OC1CC(C)OC(C)O1` (stereo not drawn) [Dimethoxane], the CC50 at 24 h (AC50 (uM) modified / 1000) was more than 90 µM. The same measure, in the same setting: as for `O=C(Cl)c1ccc(C(=O)Cl)cc1` [1,4-Benzenedicarbonyl dichloride], the figure is more than 90 µM. `COP(=O)(OC)O/C(C)=C/C(=O)N(C)C` [Dicrotophos]: under “AC50 (uM) modified / 1000, Tox21_110001=Tox21_301078, viability, 1 nM T3 present, 24 h”, the CC50 at 24 h was more than 90 µM. In the case of `CCOC(=O)[C@H](CCc1ccccc1)N[C@@H](C)C(=O)N1Cc2ccccc2C[C@H]1C(=O)O` [Quinapril hydrochloride], where the note is “AC50 (uM) modified / 1000”, the CC50 at 24 h was more than 90 µM.

In turn, `O=C(CCCN1CCC(C(=O)c2ccc(F)cc2)CC1)c1ccc(F)cc1` [Lenperone] returned a CC50 at 24 h (AC50 (uM) modified / 1000) of more than 50 µM. Compound `Cc1c(N)c(=O)n(-c2ccccc2)n1C` [Ampyrone] registered a CC50 at 24 h (AC50 (uM) modified / 1000) of more than 20 µM. The same measure, in the same setting: the result for `C/C(=C(\CCOP(=O)(O)O)SC(=O)c1ccccc1)N(C=O)Cc1cnc(C)nc1N` [Benfotiamine] reads more than 20 µM; that for `c1ccc2cc(Nc3ccc(Nc4ccc5ccccc5c4)cc3)ccc2c1` [N,N'-Di-2-naphthyl-p-phenylenediamine], more than 90 µM; that for `O=C1c2ccccc2C(=O)c2c(O)ccc(O)c21` [1,4-Dihydroxyanthracene-9,10-dione], more than 90 µM.

In turn, `CN(CCOc1ccc(CC2SC(=O)NC2=O)cc1)c1ccccn1` (stereo not drawn) [Rosiglitazone maleate] came in with a half-maximal cytotoxic concentration (CC50) at 24 h (AC50 (uM) modified / 1000) of more than 90 µM. The compound `CC[C@H]1OC(=O)C[C@@H](O)[C@H](C)[C@@H](O[C@@H]2O[C@H](C)[C@@H](O[C@H]3C[C@@](C)(O)[C@@H](O)[C@H](C)O3)[C@H](N(C)C)[C@H]2O)[C@@H](CC=O)C[C@@H](C)C(=O)/C=C/C(C)=C/[C@@H]1CO[C@@H]1O[C@H](C)[C@@H](O)[C@@H](OC)[C@H]1OC` [Tylosin tartrate] displayed a CC50 at 24 h (AC50 (uM) modified / 1000) of more than 50 µM. The compound `C/C=C/C1=C(C(=O)O)N2C(=O)[C@@H](NC(=O)[C@H](N)c3ccc(O)cc3)[C@H]2SC1` [Cefprozil monohydrate] came in with a CC50 at 24 h (AC50 (uM) modified / 1000) of more than 50 µM. For `CC(C)CC(=O)CC(C)C` [Diisobutyl ketone], the CC50 at 24 h (AC50 (uM) modified / 1000) is more than 90 µM.

Compound `O=NN1CCCCC1` [N-Nitrosopiperidine] came in with a CC50 at 24 h (AC50 (uM) modified / 1000, Tox21_110001=Tox21_200267, viability, 1 nM T3 present, 24 h) of more than 90 µM.

Under “AC50 (uM) modified / 1000”, `CCCCOC(=O)c1ccccc1C(=O)OCC(CC)CCCC` (stereo not drawn) [Butyl 2-ethylhexyl phthalate] registered a CC50 at 24 h of more than 90 µM.

On to `CC/C=C\CCCCCO` [(6Z)-Non-6-en-1-ol], for which, for the setting “AC50 (uM) modified / 1000”, the CC50 at 24 h was more than 90 µM. Compound `CC(=O)OC(C)(C)C1CC=C(C)CC1` (stereo not drawn) [alpha-Terpinyl acetate] displayed a CC50 at 24 h (AC50 (uM) modified / 1000) of more than 90 µM. Still for that read-out and setting: the result for `C=CC(C)(O)CC/C=C(/C)CCC=C(C)C` (stereo not drawn) [cis-Nerolidol] reads more than 90 µM; that for `CC(Cc1ccccc1)(NC(=O)CN)c1ccccc1` (stereo not drawn) [Remacemide hydrochloride], more than 50 µM; that for `OC[C@@H](O)[C@H](O)[C@H](O)[C@@H](O)CO` [D-Galactitol], more than 50 µM.
